By IC50 is commonly meant the concentration that gives 50% inhibition.

Among the data in patent publication US6784184B2, “5-(arylsulfonyl)-,5-(arylsulfinyl), and 5-(arylsulfanyl)-thiazolidine-2,4-diones useful for inhibition of farnesyl-protein transferase” (Wyeth Holdings Corporation, priority 2001, dated 2004) are IC50 values, retold here.

The target of assay [1] is FPTase (H-Ras substrate) (UniProt P29702+P49355). Description: in vitro FTase Inhibition Assay, H-Ras as substrate for farnesylation. The class given is biochemical. The following applies: H-Ras used as substrate for farnesylation. As to the method: (§1) The ability of the compounds of this invention to inhibit FPTase was evaluated in the standard pharmacological in vitro test procedures described below.
(§2) Methods—1. […] 2. Solution #1 is added to FPTase reaction in a volume of […]. 3. Standard reaction mix, […], contains 50 mM Tris (7.5), […], 3 mM MgCl2, 20 mM KCl, 5 mM DTT, 0.2% octyl-B-glucoside, 1% DMSO, […], 10 ng FPTase, and various concentrations of FPTase inhibitors. 4. Incubate for 30-90 min at […] 5. Stop reactions with TCA/SDS (6%/2%), hold at 4° C. for 45-60 min. 6. Filter by manifold or 96 well plate, wash filter 3-5× with TCA (6%). 7. Add scintillant to filters, measure ^3H-FPP incorporation into Ras protein.
(§3) (cpm from precipitated Ras with test compounds)−(background cpm)×100=% inhibition.
(§4) (cpm from precipitated Ras without test compounds)−(background cpm)

Assay [2] has as its target FPTase (K-Ras substrate) (UniProt P29702+P49355). Description: in vitro FTase Inhibition Assay, K-Ras as substrate for farnesylation. The assay is classed as biochemical. Particulars: K-Ras used as substrate for farnesylation. As to the method:
as §1, §2, §3, §4

As to `COc1ccc(S(=O)(=O)C2(CCCC#Cc3cc(NC(=O)OCC(C)C)ccc3C)SC(=O)N(C(=O)OCC(C)C)C2=O)cc1` (stereo not drawn) [Example 232, Isobutyl 5-(5-{5-[(isobutoxycarbonyl)-amino]-2-methylphenyl}pent-4-ynyl)-5-[(4-methoxyphenyl)sulfonyl]-2,4-dioxo-1,3-thiazolidine-3-carboxylate], the half-maximal inhibitory concentration (IC50) lay in the range of 5 to 10 nM in assay [1] and 40 to 640 nM in assay [2]. `Cc1ccc(S(=O)(=O)C2(CC#Cc3ccc(-c4ccccc4)cc3)SC(=O)NC2=O)cc1` (stereo not drawn) [Example 169, 5-(3-Biphenyl-4-yl-prop-2-ynyl)-5-(toluene-4-sulfonyl)-thiazolidine-2,4-dione]: the IC50 came to 100 nM in assay [1] and 1800 nM in assay [2]. As for `COC(=O)Nc1ccc(C)c(C#CCCCC2(S(=O)(=O)c3ccc(OC)cc3)SC(=O)NC2=O)c1` (stereo not drawn) [Example 178, (3-{5-[5-(4-Methoxybenzenesulfonyl)-2,4-dioxothiazolidin-5-yl]pent-1-ynyl}-4-methylphenyl)carbamic Acid Methyl Ester], the IC50 in assay [1] is 17 to 32 nM; in assay [2] it was 10 nM. In the case of `COc1ccc(S(=O)(=O)C2(CCCC#Cc3cc(NC(=O)Nc4ccc(Cl)cc4)ccc3C)SC(=O)NC2=O)cc1` (stereo not drawn) [Example 189, N-(4-Chlorophenyl)-N′-[3-(5-{5-[(4-methoxy-phenyl)sulfonyl]-2,4-dioxo-1,3-thiazolidin-5-yl}-1-pentynyl)-4-methylphenyl]urea], the half-maximal inhibitory concentration (IC50) in assay [1] came out at 100 nM; in assay [2] it was 1200 nM. For the compound `COc1ccc(S(=O)(=O)C2(CCCC#Cc3cc(NC(=O)OCC(C)(C)C)ccc3C)SC(=O)NC2=O)cc1` (stereo not drawn) [Example 180, (3-{5-[5-(4-Methoxybenzenesulfonyl)-2,4-dioxothiazolidin-5-yl]pent-1-ynyl}-4-methylphenyl)carbamic Acid Neopentyl Ester], the IC50 in assay [1] is 2 to 32 nM; in assay [2] it was 7 to 90 nM.

Turning to `COc1ccc(S(=O)(=O)C2(CCCC#Cc3cc([N+](=O)[O-])ccc3C)SC(=O)NC2=O)cc1` (stereo not drawn) [Example 122, 5-(4-Methoxybenzenesulfonyl)-5-[5-(2-methyl-5-nitrophenyl)pent-4-ynyl]-thiazolidine-2,4-dione], the half-maximal inhibitory concentration (IC50) in assay [1] fell in the range of 30 to 50 nM; in assay [2], 230 to 1000 nM. Take `O=C1NC(=O)C(CCCC#Cc2ccc([N+](=O)[O-])cc2)(S(=O)(=O)c2ccc(I)cc2)S1` (stereo not drawn) [Example 120, 5-(4-Iodobenzenesulfonyl)-5-[5-(4-nitrophenyl)pent-4-ynyl]-thiazolidine-2,4-dione]: the results for the IC50 in assay [1] and in assay [2] were 18 to 32 nM and 530 to 1000 nM, respectively. With `Cc1ccc(NC(=O)OC(C)(C)C)cc1C#CCCCC1(S(=O)(=O)c2ccc(I)cc2)SC(=O)NC1=O` (stereo not drawn) [Example 148, (3-{5-[5-(4-Iodobenzenesulfonyl)-2,4-dioxothiazolidin-5-yl]-pent-1-ynyl}-4-methylphenyl)carbamic Acid tert-Butyl Ester], the IC50 in assay [1] is 4.5 to 120 nM; in assay [2], 23 to 31 nM. Regarding `O=C1NC(=O)C(CCCC#Cc2ccc(-n3cccc3)cc2)(S(=O)(=O)c2ccc(I)cc2)S1` (stereo not drawn) [Example 162, 5-(4-Iodo-benzenesulfonyl)-5-[5-(4-pyrrol-1-yl-phenyl)pent-4-ynyl]-thiazolidine-2,4-dione], the concentration for half-maximal inhibition (IC50) in assay [1] was 1210 nM; in assay [2] it was 4000 nM. In the case of `O=C1NC(=O)C(CCCC#Cc2cc(Cl)ccc2Cl)(S(=O)(=O)c2ccc(I)cc2)S1` (stereo not drawn) [Example 115, 5-[5-(2,5-Dichloro-phenyl)pent-4-ynyl]-5-(4-iodobenzenesulfonyl)-thiazolidine-2,4-dione], the figures for the IC50 in assay [1] and in assay [2] were 12 to 320 nM and 160 to 230 nM, respectively. Consider `CCCCOC(=O)Nc1ccc(C)c(C#CCCCC2(S(=O)(=O)c3ccc(OC)cc3)SC(=O)N(C(=O)OCCCC)C2=O)c1` (stereo not drawn) [Example 231, Butyl 5-(5-{5-[(butoxycarbonyl)amino]-2-methylphenyl}pent-4-ynyl)-5-[(4-methoxy-phenyl)sulfonyl]-2,4-dioxo-1,3-thiazolidine-3-carboxylate], for which the IC50 in assay [1] fell in the range of 10 to 21 nM; in assay [2] it was 100 to 1000 nM. As for `COc1ccc(S(=O)(=O)C2(CCCC#Cc3ccc(NC(=O)OC(C)(C)C)cc3)SC(=O)NC2=O)cc1` (stereo not drawn) [Example 145, (4-{5-[5-(4-Methoxybenzensulfonyl)-2,4-dioxothiazolidin-5-yl]pent-1-ynyl}phenyl)carbamic Acid tert-Butyl Ester], the figures for the IC50 in assay [1] and in assay [2] were 1200 to 1700 nM and 5600 to 10000 nM, respectively. `COc1ccc(S(=O)(=O)C2(CCCC#Cc3ccc(C)cc3C)SC(=O)NC2=O)cc1` (stereo not drawn) [Example 136, 5-[5-(2,4-Dimethylphenyl)pent-4-ynyl]-5-(4-methoxybenzenesulfonyl)-thiazolidine-2,4-dione]: the half-inhibitory concentration (IC50) was 43 to 50 nM in assay [1] and 1000 to 1900 nM in assay [2]. For `O=C1NC(=O)C(CCCC#Cc2ccc(Cl)cc2)(S(=O)(=O)c2ccc(OCc3ccccc3)cc2)S1` (stereo not drawn) [Example 111, 5-(4-Benzyloxybenzenesulfonyl)-5-[5-(4-chlorophenyl)pent-4-ynyl]-thiazolidine-2,4-dione], in that order: 110 to 150 nM and 300 to 550 nM. For `COc1cccc(S(=O)(=O)C2(CCCC#Cc3cccs3)SC(=O)NC2=O)c1` (stereo not drawn) [Example 164, 5-(3-Methoxybenzenesulfonyl)-5-(5-thiophen-2-yl-pent-4-ynyl)-thiazolidine-2,4-dione], the 50% inhibitory concentration (IC50) was 150 nM in assay [1] and greater than 10000 nM in assay [2]. With `Cc1ccc(S(=O)(=O)C2(CC#Cc3ccc(Oc4ccccc4)cc3)SC(=O)NC2=O)cc1` (stereo not drawn) [Example 170, 5-[3-(4-Phenoxyphenyl)prop-2-ynyl]-5-(toluene-4-sulfonyl)-thiazolidine-2,4-dione], the values for the IC50 in assay [1] and in assay [2] were 380 nM and 4700 nM, respectively. On to `O=C1NC(=O)C(CCCC#Cc2ccc(-n3cccc3)cc2)(S(=O)(=O)c2ccc(OC(F)(F)F)cc2)S1` (stereo not drawn) [Example 163, 5-[5-(4-Pyrrol-1-ylphenyl)pent-4-ynyl]-5-(4-trifluoromethoxybenzenesulfonyl)-thiazolidine-2,4-dione], for which the IC50 in assay [1] stood at 1300 nM. For `COc1ccc(S(=O)(=O)C2(CCCC#Cc3cc(NC(=O)OCc4ccccc4)ccc3C)SC(=O)N(C(=O)OCc3ccccc3)C2=O)cc1` (stereo not drawn) [Example 226, Benzyl 5-[5-(5-{[(benzyloxy)carbonyl]-amino}-2-methylphenyl)pent-4-ynyl]-5-[(4-methoxyphenyl)sulfonyl]-2,4-dioxo-1,3-thiazolidine-3-carboxylate], the results for the IC50 in assay [1] and in assay [2] were 30 to 50 nM and 100 to 3200 nM, respectively. In the same order, the values of `COc1ccc(S(=O)(=O)C2(CCCC#Cc3ccc(Cl)cc3C)SC(=O)NC2=O)cc1` (stereo not drawn) [Example 142, 5-[5-(4-Chloro-2-methylphenyl)pent-4-ynyl]-5-(4-methoxybenzene-sulfonyl)-thiazolidine-2,4-dione] are 17 to 30 nM and 40 to 1000 nM. Turning to `Cc1ccc([N+](=O)[O-])cc1C#CCCCC1(S(=O)(=O)c2cccc3ccccc23)SC(=O)NC1=O` (stereo not drawn) [Example 126, 5-[5-(2-Methyl-5-nitrophenyl)-pent-4-ynyl]-5-(naphthalene-1-sulfonyl)-thiazolidine-2,4-dione], the IC50 in assay [1] was 90 nM; in assay [2], 1700 nM.

Regarding `COc1ccc(S(=O)(=O)C2(CCCC#Cc3cc(NC(=O)OCc4ccc([N+](=O)[O-])cc4)ccc3C)SC(=O)N(C(=O)OCc3ccc([N+](=O)[O-])cc3)C2=O)cc1` (stereo not drawn) [Example 227, 4-Nitrobenzyl 5-[(4-methoxyphenyl)sulfonyl]-5-{5-[2-methyl-5-({[(4-nitrobenzyl)oxy]carbonyl}amino)phenyl]pent-4-ynyl}-2,4-dioxo-1,3-thiazolidine-3-carboxylate], the IC50 in assay [1] lay within 7 to 10 nM; in assay [2], 210 to 400 nM. In the same order, the values of `Cc1ccc(S(=O)(=O)C2(CCCC#Cc3ccc(S(C)(=O)=O)cc3)SC(=O)NC2=O)cc1` (stereo not drawn) [Example 159, 5-[5-(4-Methanesulfonylphenyl)-pent-4-ynyl]-5-(toluene-4-sulfonyl)-thiazolidine-2,4-dione] are 650 nM and greater than 10000 nM. In the case of `COc1ccc(S(=O)(=O)C2(CC#Cc3cccnc3)SC(=O)NC2=O)cc1` (stereo not drawn) [Example 167, 5-(4-Methoxybenzenesulfonyl)-5-(3-pyridin-3-ylprop-2-ynyl)-thiazolidine-2,4-dione], the midpoint of inhibition in assay [1], the IC50, lay at 1500 nM. For `Cc1ccc(S(=O)(=O)C2(CC#Cc3cccs3)SC(=O)NC2=O)cc1` (stereo not drawn) [Example 168, 5-(3-Thiophen-2-yl-prop-2-ynyl)-5-(toluene-4-sulfonyl)-thiazolidine-2,4-dione], in assay [1], the midpoint of inhibition, the IC50, lay at 280 nM. Compound `COc1ccc(S(=O)(=O)C2(CCCC#Cc3ccc(-n4cccc4)cc3)SC(=O)NC2=O)cc1` (stereo not drawn) [Example 161, 5-(4-Methoxybenzenesulfonyl)-5-[5-(4-pyrrol-1-yl-phenyl)pent-4-ynyl]-thiazolidine-2,4-dione] yielded an IC50 in assay [1] of 900 nM. This IC50 lies about 3.2-fold higher than the previous one. The same measure, in the same setting: the same measure for `COc1ccc(S(=O)(=O)C2(CCCC#Cc3ccc(Cl)cc3)SC(=O)N(CCCn3ccnc3)C2=O)cc1` (stereo not drawn) [Example 233, 5-[5-(4-Chlorophenyl)pent-4-ynyl]-3-(3-imidazol-1-yl-propyl)-5-(4-methoxybenzenesulfonyl)-thiazolidine-2,4-dione]: 2900 nM; for `O=C1NC(=O)C(CCCC#Cc2ccc(Cl)cc2)(Sc2ccc(F)cc2)S1` (stereo not drawn) [Example 96, 5-[5-(4-Chlorophenyl)pent-4-ynyl]-5-(4-fluorophenylsulfanyl)-thiazolidine-2,4-dione]: 700 nM.
